The values that follow come from PMC5118696, “Identification of inhibitors that dually target the new permeability pathway and dihydroorotate dehydrogenase in the blood stage of Plasmodium falciparum” (Scientific Reports, 2016).

Like-named read-outs stand apart in the source and are kept apart here.

Assay [1] has as its system Hyp1-NLuc Plasmodium falciparum-infected erythrocytes (new permeability pathway, NPP). As to the kind of experiment: microbe, parasite or virus in culture. The note with it: Erythrocyte, 0.33 h, read-out: % of control remaining.
Assay [2] has the same test system. As to the kind of experiment: microbe, parasite or virus in culture. To be noted: Erythrocyte, 0.33 h, read-out: Mean RLU at 28 min (As % of DMSO control).

With `CCN(CC)CCNc1ccnc2cc3ccccc3cc12` [MMV006303], the values for the activity at 2 µM in assay [1] and in assay [2] were 107% and 109%, respectively.

`CCCCc1c(C)nc2c(OC)cccc2c1O` [MMV006820]: the activity at 2 µM in assay [1] came to 105%; in assay [2] it was 106%.

For the compound `CC(C)c1ccc(CNCC(O)c2ccccc2)cc1` (stereo not shown) [MMV001049], the activity at 2 µM in assay [1] is 116%; in assay [2], 113%.

Take `COc1ccc(CN2CCCC(C(=O)c3ccc(C(F)(F)F)cc3)C2)c(O)c1` (stereo not shown) [MMV666060]: the activity at 2 µM amounted to 114% in assay [1] and 103% in assay [2].

In the case of `COc1ccc(C(=O)C2CC2c2ccc(Cl)cc2)cc1` (stereo not shown) [MMV665924], the figures for the activity at 2 µM in assay [1] and in assay [2] were 103% and 100%, respectively.

In the case of `CSC1=NC(=Nc2c(C)cccc2C)C2(CCC(C(C)(C)C)CC2)N1c1ccc(Cl)cc1` (stereo not shown) [MMV666596], the figures for the activity at 2 µM in assay [1] and in assay [2] were 107% and 106%, respectively.

As to `COc1cccc(Cn2c(Oc3ccccc3)nc3c2c(=O)n(C)c(=O)n3C)c1` [MMV396705], the activity at 2 µM in assay [1] was 101%; in assay [2], 102%.

For the compound `CCOc1cc2c(cc1OCC)C(c1cc(Cl)ccc1O)NCC2` (stereo not shown) [MMV000478], the activity at 2 µM is 95.3% in assay [1] and 104% in assay [2].

Regarding `Cc1cc(NC(=O)c2cccc(C(F)(F)F)c2)n(-c2nc(-c3ccc4c(c3)OCO4)cs2)n1` [MMV396681], the activity at 2 µM in assay [1] came out at 102%; in assay [2], 106%.

Consider `CCN(CC)S(=O)(=O)c1ccc(-c2csc(Nc3ccc(C)c(C)c3)n2)cc1` [MMV009108], for which the activity at 2 µM in assay [1] and in assay [2] was 107% each time.

For the compound `OC(CNC1CCCC1)Cn1c2ccccc2c2ccccc21` (stereo not shown) [MMV000848], the values for the activity at 2 µM in assay [1] and in assay [2] were 110% and 112%, respectively.

As to `Cc1ccc(-c2cc3c(SCC(=O)Nc4cc(C(F)(F)F)ccc4Cl)nccn3n2)cc1` [MMV396680], the activity at 2 µM in assay [1] was 101%; in assay [2], 106%.

Take `O=c1nc(C=Cc2ccc(Br)cc2)oc2ccccc12` [MMV666599]: the activity at 2 µM in assay [1] came to 94.3%; in assay [2] it was 102%.

For `Cc1ccc(-c2cc3c(nn2)-c2ccccc2C3=O)cc1` [MMV666021], the activity at 2 µM worked out at 99.7% in assay [1] and 104% in assay [2].

Regarding `CCC1(C)CC(CCNCc2ccccc2O)(c2ccc(C)cc2)CCO1` (stereo not shown) [MMV019406], the activity at 2 µM is 105% in assay [1] and 107% in assay [2].

Consider `CC(C)(C)c1ccc(O)c(CNC2CCCCC2)c1` [MMV665785], for which the figures for the activity at 2 µM in assay [1] and in assay [2] were 104% and 103%, respectively.

Regarding `O=C(CSc1ccc2nnc(-c3cccc(F)c3)n2n1)Nc1ccc2c(c1)OCO2` [MMV665918], the activity at 2 µM in assay [1] is 121%; in assay [2], 106%.

Turning to `CCCCOc1ccc(C(=O)Nc2cc(C)on2)cc1` [MMV007906], the activity at 2 µM in assay [1] was 115%; in assay [2], 117%.

Take `O=C(Nc1ccc(Cl)cc1C(=O)Nc1ccncc1)c1ccc(Cl)cc1Cl` [MMV666057]: the activity at 2 µM in assay [1] is 119%; in assay [2], 105%.

As for `CCOC(=O)c1c(C)n(-c2ccc(Cl)cc2)c2ccc(OC(=O)C=Cc3ccccc3)cc12` [MMV666600], the activity at 2 µM in assay [1] was 100%; in assay [2], 101%.

Consider `COc1ccc(NC(=O)C2c3ccccc3C(=O)N(CC(C)C)C2c2cccs2)cc1` (stereo not shown) [MMV000662], for which the activity at 2 µM came out at 85.7% in assay [1] and 85.9% in assay [2].

As for `O=C(NCc1ccco1)C1CCN(S(=O)(=O)c2ccc(Br)cc2)CC1` [MMV007430], the values for the activity at 2 µM in assay [1] and in assay [2] were 112% and 114%, respectively.

Consider `O=C(CCc1ccco1)NC1CCN(CC2(c3ccc(Cl)cc3)CCC2)CC1` [MMV666108], for which the values for the activity at 2 µM in assay [1] and in assay [2] were 114% and 100%, respectively.

`CCN(CC)c1ccc(NC(=O)c2cccs2)cc1` [MMV009060]: the activity at 2 µM is 111% in assay [1] and 103% in assay [2].

Consider `C=C(C)CCC(C)N1CCC(N2CCC(C(=O)NCCc3ccccc3)CC2)CC1` (stereo not shown) [MMV666110], for which the activity at 2 µM in assay [1] came out at 116%; in assay [2], 108%.

Turning to `CCCCCCOC(=O)C1=C(C)NC(=O)NC1c1ccccc1F` (stereo not shown) [MMV007686], the activity at 2 µM in assay [1] worked out at 105%; in assay [2], 107%.

Regarding `CCOC(=O)c1ccc2nc(-c3ccccc3)cc(O)c2c1` [MMV006457], the activity at 2 µM in assay [1] worked out at 93.7%; in assay [2], 104%.

Take `CCCCCCc1cc2cc(-c3csc(C=Cc4ccccc4)n3)c(=O)oc2cc1O` [MMV666692]: the results for the activity at 2 µM in assay [1] and in assay [2] were 99.2% and 102%, respectively.

On to `COc1ccccc1CNC(=O)CCn1c(=O)[nH]c2ccsc2c1=O` [MMV019066], for which the activity at 2 µM in assay [1] came out at 96.9%; in assay [2] it was 98.8%.

On to `Cc1ccccc1OCCSc1nc2ccc(NC(=O)c3ccccc3)cc2s1` [MMV007577], for which the values for the activity at 2 µM in assay [1] and in assay [2] were 98.1% and 97.3%, respectively.

With `Cc1ccc(F)cc1NC(=O)c1cc(Cl)ccc1Nc1ccccc1` [MMV007275], the activity at 2 µM was found to be 116% in assay [1] and 106% in assay [2].

Take `O=c1nc(C=Cc2ccc(Cl)cc2)oc2ccccc12` [MMV007977]: the figures for the activity at 2 µM in assay [1] and in assay [2] were 105% and 110%, respectively.

Take `COc1ccc(C2=C(c3ccc(OC)cc3)C3(c4ccccc4)C(=O)C2(c2ccccc2)C2C(=O)N(c4ccc(C)cc4)C(=O)C23)cc1` (stereo not shown) [MMV666101]: the activity at 2 µM amounted to 107% in assay [1] and 108% in assay [2].

Turning to `CCOc1ccc(Nc2ccnc3cc(Cl)ccc23)cc1` [MMV007285], the activity at 2 µM was found to be 102% in assay [1] and 107% in assay [2].

Turning to `N=c1c2ccccc2nnn1-c1cccc(C(F)(F)F)c1` [MMV665923], the activity at 2 µM was found to be 89.5% in assay [1] and 94.3% in assay [2].

Consider `CC(C)OCc1cc(CN2CCN(c3cccc(Cl)c3)CC2)c(O)c2ncccc12` [MMV000788], for which the activity at 2 µM in assay [1] stood at 107%; in assay [2], 109%.

For `COc1cccc(-c2nn(C)c3sc(C(=O)NCCN4CCN(c5ccccc5F)CC4)cc23)c1` [MMV019064], the values for the activity at 2 µM in assay [1] and in assay [2] were 118% and 110%, respectively.

In the case of `COc1ccc(-c2cc3c(nn2)-c2ccccc2C3=O)cc1` [MMV666026], the results for the activity at 2 µM in assay [1] and in assay [2] were 108% and 98.8%, respectively.

Take `CCOC(=O)c1cnc2ccc(OC)cc2c1NCc1ccccc1` [MMV665813]: the activity at 2 µM in assay [1] came out at 114%; in assay [2], 115%.

On to `Cc1ccc2c(C)nc(Nc3nc(C)cc(-c4ccccc4)n3)nc2c1` [MMV007041], for which the activity at 2 µM in assay [1] worked out at 98.8%; in assay [2] it was 104%.

For the compound `COc1ccc(CCNC(=O)c2cc(S(=O)(=O)N3CC(C)CC(C)C3)ccc2Sc2ccc(F)cc2)cc1OC` (stereo not shown) [MMV007557], the activity at 2 µM in assay [1] turned out to be 106%; in assay [2], 102%.

Consider `CCOC(=O)C1(Cc2ccccc2)CCN(Cc2cccc(OC)c2O)CC1` [MMV666109], for which the values for the activity at 2 µM in assay [1] and in assay [2] were 97.9% and 93.9%, respectively.

Turning to `COc1ccc(-c2cn3c(C(=O)Nc4ccccc4Cl)c(-c4ccccc4)c4c3n2CCCC4)cc1` [MMV020403], the activity at 2 µM in assay [1] is 106%; in assay [2], 103%.

Consider `COc1ccc(C(=O)NC(c2ccccc2Cl)c2cc(Cl)c3cccnc3c2O)cc1` (stereo not shown) [MMV666022], for which the activity at 2 µM is 113% in assay [1] and 104% in assay [2].

Regarding `COc1ccc(-c2nc(NC(=O)CS(=O)(=O)c3ccc(F)cc3)sc2C)cc1` [MMV665915], the activity at 2 µM in assay [1] was found to be 98.3%; in assay [2], 101%.

With `COc1cccc(Nc2nc(NCCO)c3ccccc3n2)c1` [MMV011944], the activity at 2 µM in assay [1] and in assay [2] was 101% in each case.

Turning to `COc1ccc(C=C2SC(=N)N(c3ccccc3OC)C2=O)cc1` [MMV666691], the activity at 2 µM in assay [1] is 26.4%; in assay [2] it was 61.9%.

On to `CCCC(c1nnnn1C1CCCCC1)N1CCN(C(=O)c2ccco2)CC1` (stereo not shown) [MMV666093], for which the values for the activity at 2 µM in assay [1] and in assay [2] were 113% and 104%, respectively.

With `C=CCc1c(C)nc2ccccc2c1O` [MMV006913], the results for the activity at 2 µM in assay [1] and in assay [2] were 115% and 116%, respectively.

Consider `COc1ccc(Nc2cc(C)nc(NCc3ccccc3)n2)cc1` [MMV006825], for which the values for the activity at 2 µM in assay [1] and in assay [2] were 110% and 107%, respectively.

On to `Cc1[nH]c(-c2ccc(F)cc2)cc1C(=O)NC1CCN(Cc2ccccc2)CC1` [MMV019738], for which the values for the activity at 2 µM in assay [1] and in assay [2] were 95.2% and 109%, respectively.

Turning to `CC(=O)NCCc1nc2ccccc2n1Cc1ccc(C(C)C)cc1` [MMV007617], the activity at 2 µM in assay [1] worked out at 82.1%; in assay [2], 95.2%.

With `Clc1cc(Br)ccc1-c1ccc(CNCC2CCNCC2)o1` [MMV019918], the activity at 2 µM in assay [1] came to 111%; in assay [2], 114%.

As to `Cc1cc(N(C)C)nc(Nc2ccc(NC(=O)Nc3ccccc3)cc2)n1` [MMV020243], the activity at 2 µM in assay [1] is 104%; in assay [2], 106%.

As to `OC(CNCC1CCCO1)Cn1c2ccc(Cl)cc2c2cc(Cl)ccc21` (stereo not shown) [MMV396736], the values for the activity at 2 µM in assay [1] and in assay [2] were 112% and 116%, respectively.

With `Oc1ccc2ccccc2c1CNc1nc2ccccc2[nH]1` [MMV011832], the activity at 2 µM is 102% in assay [1] and 107% in assay [2].

As for `O=C(O)C1Cc2c([nH]c3ccccc23)C(c2ccc(Cl)cc2Cl)N1` (stereo not shown) [MMV008138], the activity at 2 µM in assay [1] and in assay [2] was 102% throughout.

As to `CN(N=O)C1=C(NC2CCCCC2)C(=O)c2ccccc2C1=O` [MMV667492], the activity at 2 µM in assay [1] turned out to be 90.8%; in assay [2] it was 103%.

As to `Cc1ccc(N2C(=O)C3C(C2=O)C2(c4ccccc4)C(=O)C3(c3ccccc3)C(c3ccccc3)=C2c2ccccc2)cc1` (stereo not shown) [MMV666062], the activity at 2 µM in assay [1] was 97.6%; in assay [2], 106%.
